The values that follow are results of earlier work, collected in patent publication US10406122B2 (priority 2011, dated 2019).

The conditions of series [1]: tramadol […] [100 mg] p.o., single dose; cited from earlier work.
The test system of series [2] is patients undergoing abdominal surgery. Particulars: within the first 90 minutes of treatment; cited from earlier work.
For the next series, the system named is postoperative pain. The note with it: after 4 to 6 hours, IV or IM intermittent injection; cited from earlier work.
Series [3] has as its system experienced opioid abusers. Particulars: cited from earlier work.

In the case of (+)-O-desmethyltramadol [(+)-M1], in series [1], the AUC is 1258 ± 410 ng·h/mL, the Cmax is 147 ± 39 ng/mL, the Tmax is reported as 1.6 ± 0.5 h and the t1/2 is 6.0 ± 1.0 h.

Take `CN1CC[C@]23c4c5ccc(O)c4O[C@H]2[C@@H](O)C=C[C@H]3[C@H]1C5` [morphine]: in series [2], the “responder rate (no or slight pain)” value is given as 81.2%. The “reduction of pain intensity” value with postoperative pain was 69.8%. Further, the “ratings of feel drug effect compared to placebo” value in series [3] (IV over 5 minutes) is “significantly increased ratings”. In series [3] (tramadol 100 and 200 mg IV, morphine 10 and 20 mg IV, over 5 minutes), the “ratings of liking / ARCI-MBG scale” value is on record as “significantly increased ratings”.
